Source: patent US9802927B2, “Oxadiazine compounds and methods of use thereof” (Denali Therapeutics, Inc., priority 2015, dated 2017)

tested on: Aβ42; assay: In vitro cell screening assay in H4 cells expressing human APP751: Aβ42 by sandwich ELISA; type: cell-based; settings: Homo sapiens, compounds 0.003-10 μM, incubated overnight (16-18 h), sandwich ELISA of supernatant
How it was run: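 Secreted Aβ42 measured by sandwich ELISA, C-terminal-specific capture and 4G8-HRP detection, TMB read at 450 nm, from supernatants of APP751-expressing H4 cells exposed overnight (16-18 h) to 0.003-10 μM compound in Pro293 medium, 0.33% DMSO. Data scaled between DMSO and DAPT controls; EC50 from variable-slope nonlinear regression.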

Compared with `COc1nc(C2=NOCC(C)N2)ccc1-n1cnc(C)c1` (single isomer, unassigned; (+)) [Example 149A, (+)-3-(6-methoxy-5-(4-methyl-1H-imidazol-1-yl)pyridin-2-yl)-5-methyl-5,6-dihydro-4H-1,2,4-oxadiazine], `COc1nc(C2=NOCC(C3CCC(F)(F)CC3)N2)ccc1-n1cnc(C)c1` (single isomer, unassigned; (-)) [Example 139A, (−)-5-(4,4-difluorocyclohexyl)-3-(6-methoxy-5-(4-methyl-1H-imidazol-1-yl)pyridin-2-yl)-5,6-dihydro-4H-1,2,4-oxadiazine] is lower in EC50: over 3000 nM for the first, 2130 nM for the second. The second is the more potent here.

same assay, conditions: compounds 0.003-10 μM, incubated overnight (16-18 h), sandwich ELISA of supernatant

First: COc1nc(C2=NOCC(c3ccc(Cl)cc3)N2)ccc1-n1cnc(C)c1 (single isomer, unassigned) [Example 42B, 5-(4-chlorophenyl)-3-(6-methoxy-5-(4-methyl-1H-imidazol-1-yl)pyridin-2-yl)-5,6-dihydro-4H-1,2,4-oxadiazine]
Second: COc1nc(C2=NOCC(c3ccc(F)cc3)N2)ccc1-n1cnc(C)c1 (single isomer, unassigned) [Example 40A, 5-(4-fluorophenyl)-3-(6-methoxy-5-(4-methyl-1H-imidazol-1-yl)pyridin-2-yl)-5,6-dihydro-4H-1,2,4-oxadiazine]
The EC50 of the first is lower: 28.3 nM for the first, over 3000 nM for the second. The first is the more potent here.

Going from `COc1nc(C2=NOCC(c3cc4cc(C(F)(F)F)ccc4o3)N2)ccc1-n1cnc(C)c1` (single isomer, unassigned; (+)) [Example 259B, (+)-3-(6-methoxy-5-(4-methyl-1H-imidazol-1-yl)pyridin-2-yl)-5-(5-(trifluoromethyl)benzofuran-2-yl)-5,6-dihydro-4H-1,2,4-oxadiazine] to `COc1nc(C2=NOCC(c3cc4ccc(Cl)cc4o3)N2)ccc1-n1cnc(C)c1` (single isomer, unassigned; (-)) [Example 78A, (−)-5-(6-chlorobenzofuran-2-yl)-3-(6-methoxy-5-(4-methyl-1H-imidazol-1-yl)pyridin-2-yl)-5,6-dihydro-4H-1,2,4-oxadiazine], the EC50 rises from 9 nM to 1280 nM (140-fold). The first is the more potent here.

`COc1nc(C2=NOCC(c3cn(C)c4ncc(Cl)cc34)N2)ccc1-n1cnc(C)c1` (single isomer, unassigned; (-)) [Example 264A, (−)-5-(5-chloro-1-methyl-1H-pyrrolo[2,3-b]pyridin-3-yl)-3-(6-methoxy-5-(4-methyl-1H-imidazol-1-yl)pyridin-2-yl)-5,6-dihydro-4H-1,2,4-oxadiazine] and `COc1nc(C2=NOCC(c3cn(C)c4cc(C#N)ccc34)N2)ccc1-n1cnc(C)c1` (single isomer, unassigned; (-)) [Example 249A, (−)-3-(3-(6-methoxy-5-(4-methyl-1H-imidazol-1-yl)pyridin-2-yl)-5,6-dihydro-4H-1,2,4-oxadiazin-5-yl)-1-methyl-1H-indole-6-carbonitrile] are within 1.5-fold of each other in EC50: 321 nM for the first, 429 nM for the second.

`COc1nc(C2=NOCC(c3ccc4ncccc4c3)N2)ccc1-n1cnc(C)c1` (single isomer, unassigned; (+)) [Example 224B, (+)-3-(6-methoxy-5-(4-methyl-1H-imidazol-1-yl)pyridin-2-yl)-5-(quinolin-6-yl)-5,6-dihydro-4H-1,2,4-oxadiazine] and `COc1nc(C2=NOCC(c3ccc4ncsc4c3)N2)ccc1-n1cnc(C)c1` (single isomer, unassigned; (+)) [Example 183B, (+)-5-(benzo [d]thiazol-6-yl)-3-(6-methoxy-5-(4-methyl-1H-imidazol-1-yl)pyridin-2-yl)-5,6-dihydro-4H-1,2,4-oxadiazine] are within 1.5-fold of each other in EC50: 294 nM for the first, 260 nM for the second.

Going from `COc1nc(C2=NOCC(c3cn(C)c4cc(F)cc(F)c34)N2)ccc1-n1cnc(C)c1` (single isomer, unassigned; (+)) [Example 226A, (+)-5-(4,6-difluoro-1-methyl-1H-indol-3-yl)-3-(6-methoxy-5-(4-methyl-1H-imidazol-1-yl)pyridin-2-yl)-5,6-dihydro-4H-1,2,4-oxadiazine] to `COc1nc(C2=NOCC(c3cn(C)c4cccc(OC)c34)N2)ccc1-n1cnc(C)c1` (single isomer, unassigned; (+)) [Example 252B, (+)-5-(4-methoxy-1-methyl-1H-indol-3-yl)-3-(6-methoxy-5-(4-methyl-1H-imidazol-1-yl)pyridin-2-yl)-5,6-dihydro-4H-1,2,4-oxadiazine], the EC50 rises from 9.4 nM to 36.3 nM (3.9-fold). The first is the more potent here.

First: COc1nc(C2=NOCC(c3cc4ccccc4o3)N2)ccc1-n1cnc(C)n1 (single isomer, unassigned; (-)) [Example 31A, (−)-5-(Benzofuran-2-yl)-3-(6-methoxy-5-(3-methyl-1H-1,2,4-triazol-1-yl)pyridin-2-yl)-5,6-dihydro-4H-1,2,4-oxadiazine]
Second: COc1nc(C2=NOCC(c3ccccc3)N2)ccc1-n1cnc(C)c1 (single isomer, unassigned) [Example 36B, 3-(6-methoxy-5-(4-methyl-1H-imidazol-1-yl)pyridin-2-yl)-5-phenyl-5,6-dihydro-4H-1,2,4-oxadiazine]
The EC50 of the first is higher: over 3000 nM for the first, 97 nM for the second. The second is the more potent here.

`COc1nc(C2=NOCC(c3ccccc3Cl)N2)ccc1-n1cnc(C)c1` (single isomer, unassigned) [Example 136A, 5-(2-chlorophenyl)-3-(6-methoxy-5-(4-methyl-1H-imidazol-1-yl)pyridin-2-yl)-5,6-dihydro-4H-1,2,4-oxadiazine] and `COc1nc(C2=NOCC(c3cccc(C#N)c3)N2)ccc1-n1cnc(C)c1` (single isomer, unassigned; (+)) [Example 141B, (+)-3-(3-(6-methoxy-5-(4-methyl-1H-imidazol-1-yl)pyridin-2-yl)-5,6-dihydro-4H-1,2,4-oxadiazin-5-yl) benzonitrile] are within 1.5-fold of each other in EC50: 143 nM for the first, 214 nM for the second.

Compared with `COc1nc(C2=NOCC(c3ccc4scnc4c3)N2)ccc1-n1cnc(C)c1` (single isomer, unassigned; (-)) [Example 240A, (−)-5-(benzo[d]thiazol-5-yl)-3-(6-methoxy-5-(4-methyl-1H-imidazol-1-yl)pyridin-2-yl)-5,6-dihydro-4H-1,2,4-oxadiazine], `COc1nc(C2=NOCC(c3cccc(C4CC4)c3)N2)ccc1-n1cnc(C)c1` (single isomer, unassigned; (+)) [Example 127B, (+)-5-(3-cyclopropylphenyl)-3-(6-methoxy-5-(4-methyl-1H-imidazol-1-yl)pyridin-2-yl)-5,6-dihydro-4H-1,2,4-oxadiazine] is lower in EC50: over 3000 nM for the first, 23 nM for the second. The second is the more potent here.

Going from `COc1nc(C2=NOCC(C3CCC3)N2)ccc1-n1cnc(C)c1` (single isomer, unassigned; (-)) [Example 163B, (−)-5-cyclobutyl-3-(6-methoxy-5-(4-methyl-1H-imidazol-1-yl)pyridin-2-yl)-5,6-dihydro-4H-1,2,4-oxadiazine] to `COc1nc(C2=NOCC(C3Cc4ccccc4C3)N2)ccc1-n1cnc(C)c1` (single isomer, unassigned; (-)) [Example 246A, (−)-5-(2,3-dihydro-1H-inden-2-yl)-3-(6-methoxy-5-(4-methyl-1H-imidazol-1-yl)pyridin-2-yl)-5,6-dihydro-4H-1,2,4-oxadiazine], the EC50 rises from 368 nM to 576 nM (1.6-fold). The first is the more potent here.

Going from `COc1nc(C2=NOCC(c3ccc(Cl)cc3C)N2C)ccc1-n1cnc(C)c1` (single isomer, unassigned) [Example 27B, 5-(4-chloro-2-methylphenyl)-3-(6-methoxy-5-(4-methyl-1H-imidazol-1-yl)pyridin-2-yl)-4-methyl-5,6-dihydro-4H-1,2,4-oxadiazine] to `COc1nc(C2=NOCC(c3cn(C)c4ncc(Cl)cc34)N2)ccc1-n1cnc(C)c1` (single isomer, unassigned; (+)) [Example 264B, (+)-5-(5-chloro-1-methyl-1H-pyrrolo[2,3-b]pyridin-3-yl)-3-(6-methoxy-5-(4-methyl-1H-imidazol-1-yl)pyridin-2-yl)-5,6-dihydro-4H-1,2,4-oxadiazine], the EC50 falls from 61.3 nM to 9.5 nM (6.5-fold).

Going from `COc1nc(C2=NOCC(c3cn(C)c4ccc(C5CC5)cc34)N2)ccc1-n1cnc(C)c1` (single isomer, unassigned; (-)) [Example 221A, (−)-5-(5-cyclopropyl-1-methyl-1H-indol-3-yl)-3-(6-methoxy-5-(4-methyl-1H-imidazol-1-yl)pyridin-2-yl)-5,6-dihydro-4H-1,2,4-oxadiazine] to `COc1nc(C2=NOCC(c3cn(C)c4cc(S(C)(=O)=O)ccc34)N2)ccc1-n1cnc(C)c1` (single isomer, unassigned; (-)) [Example 256A, (−)-3-(6-methoxy-5-(4-methyl-1H-imidazol-1-yl)pyridin-2-yl)-5-(1-methyl-6-(methylsulfonyl)-1H-indol-3-yl)-5,6-dihydro-4H-1,2,4-oxadiazine], the EC50 rises from 59.9 nM to 2590 nM (43-fold). The first is the more potent here.

Compared with `COc1nc(C2=NOCC(c3cn(C)c4cc(F)cc(F)c34)N2)ccc1-n1cnc(C)c1` (single isomer, unassigned; (-)) [Example 226B, (−)-5-(4,6-difluoro-1-methyl-1H-indol-3-yl)-3-(6-methoxy-5-(4-methyl-1H-imidazol-1-yl)pyridin-2-yl)-5,6-dihydro-4H-1,2,4-oxadiazine], `COc1nc(C2=NOCC(c3cc(F)cc(Cl)c3)N2)ccc1-n1cnc(C)c1` (single isomer, unassigned; (-)) [Example 111A, (−)-5-(3-chloro-5-fluorophenyl)-3-(6-methoxy-5-(4-methyl-1H-imidazol-1-yl)pyridin-2-yl)-5,6-dihydro-4H-1,2,4-oxadiazine] is higher in EC50: 71.4 nM for the first, over 3000 nM for the second.

First: COc1nc(C2=NOCC(c3cn(C)c4ccc(C5CC5)cc34)N2)ccc1-n1cnc(C)c1 (single isomer, unassigned; (+)) [Example 221B, (+)-5-(5-cyclopropyl-1-methyl-1H-indol-3-yl)-3-(6-methoxy-5-(4-methyl-1H-imidazol-1-yl)pyridin-2-yl)-5,6-dihydro-4H-1,2,4-oxadiazine]
Second: COc1nc(C2=NOCC(c3oc4ccc(F)cc4c3C)N2)ccc1-n1cnc(C)c1 (single isomer, unassigned; (+)) [Example 101B, (+)-5-(5-fluoro-3-methylbenzofuran-2-yl)-3-(6-methoxy-5-(4-methyl-1H-imidazol-1-yl)pyridin-2-yl)-5,6-dihydro-4H-1,2,4-oxadiazine]
The EC50 of the first is 3.7-fold lower: 2.9 nM for the first, 10.8 nM for the second.
